{
  "source": "patent US11530193B2",
  "about": "“Kinase inhibitors” (The University of Manchester, priority 2018, dated 2022)",
  "note": "Structures can show the parent of a compound that is named as a salt.",
  "data": [
    {"target": "CAMK1D (Homo sapiens (Human), UniProt Q8IU85)", "sequence (Q8IU85 1-333)": "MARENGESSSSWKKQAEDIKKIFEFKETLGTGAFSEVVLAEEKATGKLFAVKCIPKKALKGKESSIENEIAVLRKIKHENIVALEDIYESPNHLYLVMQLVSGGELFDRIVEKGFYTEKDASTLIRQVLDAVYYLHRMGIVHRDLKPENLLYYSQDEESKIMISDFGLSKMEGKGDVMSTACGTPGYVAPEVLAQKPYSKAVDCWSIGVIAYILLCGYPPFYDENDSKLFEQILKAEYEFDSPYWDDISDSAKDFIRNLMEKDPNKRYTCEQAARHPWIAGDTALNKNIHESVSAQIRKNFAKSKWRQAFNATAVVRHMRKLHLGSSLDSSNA", "assay": "Tm-Shift assay (thermal melting, SYPRO Orange)", "format": "binding", "conditions": "compound 10 μM, protein 2 μM; ΔTm obs vs protein without ligand; triplicate", "units": {"CAMK1d Tm-Shift": "°C"}, "values": [
      {"smiles": "CC(C)(C)c1cc(Nc2nc(N3CCC[C@H](N)C3)ncc2C(N)=O)cc(S(=O)(=O)N2CCOCC2)c1", "note": "[Example 104, (S)-2-(3-aminopiperidin-1-yl)-4-((3-(tert-butyl)-5-(morpholinosulfonyl)phenyl)amino) pyrimidine-5-carboxamide]", "CAMK1d Tm-Shift": 11.5},
      {"smiles": "CN(C)CCN(C)C(=O)c1cccc(Nc2nc(N3CCC[C@H](N)C3)ncc2C(N)=O)c1", "note": "[Example 25, (S)-2-(3-aminopiperidin-1-yl)-4-((3-((2-(dimethylamino)ethyl)(methyl)carbamoyl)phenyl)amino) pyrimidine-5-carboxamide]", "CAMK1d Tm-Shift": 8.1}
    ]},
    {"target": "CAMK1D (Homo sapiens (Human), UniProt Q8IU85)", "assay": "Tm-Shift assay (thermal melting, SYPRO Orange)", "format": "binding", "conditions": "read-out: CAMK1d Tm-Shift", "units": {"ΔTm at 10 µM": "°C"}, "values": [
      {"smiles": "CC(C)(C)c1cc(Nc2nc(N3CCCC(N)C3)ncc2C(N)=O)cc(C(C)(C)C)c1", "note": "(stereo not drawn) [Example 2, 2-(3-aminopiperidin-1-yl)-4-((3,5-di-tert-butylphenyl)amino)pyrimidine-5-carboxamide]", "ΔTm at 10 µM": 14},
      {"smiles": "CC(C)(C)c1cc(Nc2nc(N3CCC[C@@H](N)C3)ncc2C(N)=O)cc(C(C)(C)C)c1", "note": "[Example 7, (R)-2-(3-aminopiperidin-1-yl)-4-((3,5-di-tert-butylphenyl)amino)pyrimidine-5-carboxamide hydrochloride]", "ΔTm at 10 µM": 10.6},
      {"smiles": "CC(C)(C)c1cccc(Nc2nc(N3CCCC(N)C3)ncc2C(N)=O)c1", "note": "(stereo not drawn) [Example 1, 2-(3-aminopiperidin-1-yl)-4-((3-(tert-butyl)phenyl)amino)pyrimidine-5-carboxamide]", "ΔTm at 10 µM": 10.6},
      {"smiles": "CC(C)(C)c1cc(Nc2nc(N3CCC[C@H](N)C3)ncc2C(N)=O)cc(C(=O)N2CCOCC2)c1", "note": "[Example 29, (S)-2-(3-aminopiperidin-1-yl)-4-((3-(tert-butyl)-5-(morpholine-4-carbonyl)phenyl)amino)pyrimidine-5-carboxamide]", "ΔTm at 10 µM": 12.4},
      {"smiles": "Cc1ccccc1-c1cc(Nc2nc(N3CCC[C@H](N)C3)ncc2C(N)=O)cc(C(=O)N2CCOCC2)c1", "note": "[Example 44, (S)-2-(3-aminopiperidin-1-yl)-4-((2′-methyl-5-(morpholine-4-carbonyl)-[1,1′-biphenyl]-3-yl)amino)pyrimidine-5-carboxamide]", "ΔTm at 10 µM": 10.9},
      {"smiles": "CC(C)(C)c1cc(Nc2nc(N3CCC[C@H](N)C3)ncc2C(N)=O)cc(C(C)(C)C)c1", "note": "[Example 3, (S)-2-(3-aminopiperidin-1-yl)-4-((3,5-di-tert-butylphenyl)amino)pyrimidine-5-carboxamide]", "ΔTm at 10 µM": 13.4},
      {"smiles": "COC1(c2cc(Nc3nc(N4CCC[C@H](N)C4)ncc3C(N)=O)cc(C(F)(F)F)c2)CC1", "note": "[Example 122, (S)-2-(3-aminopiperidin-1-yl)-4-((3-(1-methoxycyclopropyl)-5-(trifluoromethyl)phenyl)amino)pyrimidine-5-carboxamide]", "ΔTm at 10 µM": -0.8},
      {"smiles": "CC(C)(C#N)c1cccc(Nc2nc(N3CCC[C@H](N)C3)ncc2C(N)=O)c1", "note": "[Example 4, (S)-2-(3-aminopiperidin-1-yl)-4-((3-(2-cyanopropan-2-yl)phenyl)amino)pyrimidine-5-carboxamide]", "ΔTm at 10 µM": 9}
    ]},
    {"target": "SYK (Homo sapiens (Human), UniProt P43405)", "assay": "Tm-Shift assay (thermal melting, SYPRO Orange);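 note: recombinant His-tagged protein made in Sf9 insect cells by baculovirus, in HEPES NaCl buffer, heated stepwise with fluorescence recorded at every temperature step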", "format": "binding", "conditions": "not given", "units": {"SYK Tm-Shift": "°C"}, "values": [
      {"smiles": "C[C@@H]1COC[C@H](C)N1C(=O)c1cccc(Nc2nc(N3CCC[C@H](N)C3)ncc2C(N)=O)c1.Cl", "note": "[Example 33, 2-((S)-3-aminopiperidin-1-yl)-4-((3-((3S,5R)-3,5-dimethylmorpholine-4-carbonyl)phenyl)amino)pyrimidine-5-carboxamide hydrochloride]", "SYK Tm-Shift": 0.5},
      {"smiles": "CC(C)(C)c1cc(Nc2nc(N3CCC[C@H](N)C3)ncc2C(N)=O)cc(S(=O)(=O)N2CCOCC2)c1", "note": "[Example 104, (S)-2-(3-aminopiperidin-1-yl)-4-((3-(tert-butyl)-5-(morpholinosulfonyl)phenyl)amino) pyrimidine-5-carboxamide]", "SYK Tm-Shift": 0.9},
      {"smiles": "CN(C)CCN(C)C(=O)c1cccc(Nc2nc(N3CCC[C@H](N)C3)ncc2C(N)=O)c1", "note": "[Example 25, (S)-2-(3-aminopiperidin-1-yl)-4-((3-((2-(dimethylamino)ethyl)(methyl)carbamoyl)phenyl)amino) pyrimidine-5-carboxamide]", "SYK Tm-Shift": 0.7},
      {"smiles": "CC(C)(O)C1CN(C(=O)c2cccc(Nc3nc(N4CCC[C@H](N)C4)ncc3C(N)=O)c2)C1.Cl", "note": "[Example 37, (S)-2-(3-aminopiperidin-1-yl)-4-((3-(3-(2-hydroxypropan-2-yl)azetidine-1-carbonyl)phenyl)amino)pyrimidine-5-carboxamide hydrochloride]", "SYK Tm-Shift": 5.0},
      {"smiles": "CN1CCN(C(=O)c2cccc(Nc3nc(N4CCC[C@H](N)C4)ncc3C(N)=O)c2)CC1=O.Cl", "note": "[Example 38, (S)-2-(3-aminopiperidin-1-yl)-4-((3-(4-methyl-3-oxopiperazine-1-carbonyl)phenyl)amino)pyrimidine-5-carboxamide hydrochloride]", "SYK Tm-Shift": 3.4},
      {"smiles": "CC(C)(C)c1cc(Nc2nc(N3C[C@H](N)C[C@H](N)C3)ncc2C(N)=O)cc(C(C)(C)C)c1.Cl.Cl", "note": "[Example 11, 4-((3,5-di-tert-butylphenyl)amino)-2-((3S,5R)-3,5-diaminopiperidin-1-yl)pyrimidine-5-carboxamide dihydrochloride]", "SYK Tm-Shift": "−0.5"},
      {"smiles": "COC[C@H]1CCCN1C(=O)c1cccc(Nc2nc(N3CCC[C@H](N)C3)ncc2C(N)=O)c1.Cl", "note": "[Example 36, 2-((S)-3-aminopiperidin-1-yl)-4-((3-((R)-2-(methoxymethyl)pyrrolidine-1-carbonyl)phenyl)amino)pyrimidine-5-carboxamide hydrochloride]", "SYK Tm-Shift": 1.4}
    ]},
    {"target": "SYK (Homo sapiens (Human), UniProt P43405)", "assay": "Tm-Shift assay (thermal melting, SYPRO Orange);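 note: recombinant His-tagged protein made in Sf9 insect cells by baculovirus, in HEPES NaCl buffer, heated stepwise with fluorescence recorded at every temperature step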", "format": "binding", "conditions": "compound 10 μM, protein 2 μM; ΔTm obs vs protein without ligand; triplicate", "units": {"SYK Tm-Shift": "°C"}, "values": [
      {"smiles": "NC(=O)c1cnc(N2CCC[C@H](N)C2)nc1Nc1cc(C2CC2)cc(C2CC2)c1", "note": "[Example 53, (S)-2-(3-aminopiperidin-1-yl)-4-((3,5-dicyclopropylphenyl)amino)pyrimidine-5-carboxamide]", "SYK Tm-Shift": 8.2},
      {"smiles": "NC(=O)c1cnc(N2CCC[C@H](N)C2)nc1Nc1cccc(C(=O)N2CCOCC2)c1", "note": "[Example 24, (S)-2-(3-aminopiperidin-1-yl)-4-((3-(morpholine-4-carbonyl)phenyl)amino)pyrimidine-5-carboxamide]", "SYK Tm-Shift": 1.4},
      {"smiles": "NC(=O)c1cnc(N2CCC[C@H](N)C2)nc1Nc1cc(C(=O)N2CCOCC2)cc(C(F)(F)F)c1", "note": "[Example 43, (S)-2-(3-aminopiperidin-1-yl)-4-((3-(morpholine-4-carbonyl)-5-(trifluoromethyl)phenyl)amino)pyrimidine-5-carboxamide]", "SYK Tm-Shift": 1.2},
      {"smiles": "COc1ccc2c(c1)CN(C(=O)c1cccc(Nc3nc(N4CCC[C@H](N)C4)ncc3C(N)=O)c1)C2", "note": "[Example 35, (S)-2-(3-aminopiperidin-1-yl)-4-((3-(5-methoxyisoindoline-2-carbonyl)phenyl)amino)pyrimidine-5-carboxamide]", "SYK Tm-Shift": 4.3},
      {"smiles": "CC(C)(C)c1cc(Nc2nc(N3CCC[C@H](N)C3)ncc2C(N)=O)ccn1", "note": "[Example 8, (S)-2-(3-aminopiperidin-1-yl)-4-((2-(tert-butyl)pyridin-4-yl)amino)pyrimidine-5-carboxamide]", "SYK Tm-Shift": 3.2},
      {"smiles": "CC1(C)C(=O)Nc2ccc(Nc3nc(N4CCC[C@H](N)C4)ncc3C(N)=O)cc21", "note": "[Example 65, (S)-2-(3-aminopiperidin-1-yl)-4-((3,3-dimethyl-2-oxoindolin-5-yl)amino)pyrimidine-5-carboxamide]", "SYK Tm-Shift": 0.3},
      {"smiles": "CC(C)(C#N)c1cc(Nc2nc(N3CCC[C@H](N)C3)ncc2C(N)=O)cc(C(=O)N2CCOCC2)c1", "note": "[Example 48, (S)-2-(3-aminopiperidin-1-yl)-4-((3-(2-cyanopropane-2-yl)-5-(morpholine-4-carbonyl)phenyl)amino)pyrimidine-5-carboxamide]", "SYK Tm-Shift": 0.5},
      {"smiles": "CC(C)(C#N)c1cc(Nc2nc(N3CCC[C@H](N)C3)ncc2C(N)=O)cc(C(=O)N2CCCC2)c1", "note": "[Example 47, (S)-2-(3-aminopiperidin-1-yl)-4-((3-(2-cyanopropan-2-yl)-5-(pyrrolidine-1-carbonyl)phenyl)amino)pyrimidine-5-carboxamide]", "SYK Tm-Shift": 0.7},
      {"smiles": "Cc1ccccc1-c1cccc(Nc2nc(N3CCC[C@H](N)C3)ncc2C(N)=O)c1", "note": "[Example 10, (S)-2-(3-aminopiperidin-1-yl)-4-((2′-methyl-[1,1′-biphenyl]-3-yl)amino)pyrimidine-5-carboxamide]", "SYK Tm-Shift": 6.5},
      {"smiles": "CC(C)(C)c1cc(Nc2nc(N3CCC[C@H](N)C3)ncc2C(N)=O)cc(C(=O)N2CCOCC2)c1", "note": "[Example 29, (S)-2-(3-aminopiperidin-1-yl)-4-((3-(tert-butyl)-5-(morpholine-4-carbonyl)phenyl)amino)pyrimidine-5-carboxamide]", "SYK Tm-Shift": 0.3},
      {"smiles": "C[C@@H]1CN(C(=O)c2cccc(Nc3nc(N4CCC[C@H](N)C4)ncc3C(N)=O)c2)C[C@H](C)O1", "note": "[Example 39, 2-((S)-3-aminopiperidin-1-yl)-4-((3-((2R,6S)-2,6-dimethylmorpholine-4-carbonyl)phenyl)amino)pyrimidine-5-carboxamide]", "SYK Tm-Shift": 3.1},
      {"smiles": "NC(=O)c1cnc(N2CCC[C@H](N)C2)nc1Nc1cc(C(=O)N2CCOCC2)cc(-c2ccccc2)c1", "note": "[Example 21, (S)-2-(3-aminopiperidin-1-yl)-4-((5-(morpholine-4-carbonyl)-[1,1′-biphenyl]-3-yl)amino)pyrimidine-5-carboxamide]", "SYK Tm-Shift": 0.3},
      {"smiles": "Cc1ccccc1-c1cc(Nc2nc(N3CCC[C@H](N)C3)ncc2C(N)=O)cc(C(=O)N2CCOCC2)c1", "note": "[Example 44, (S)-2-(3-aminopiperidin-1-yl)-4-((2′-methyl-5-(morpholine-4-carbonyl)-[1,1′-biphenyl]-3-yl)amino)pyrimidine-5-carboxamide]", "SYK Tm-Shift": "−0.3"},
      {"smiles": "CC(C)(O)c1cc(Nc2nc(N3CCC[C@H](N)C3)ncc2C(N)=O)cc(C(C)(C)O)c1", "note": "[Example 90, (S)-2-(3-aminopiperidin-1-yl)-4-((3,5-bis(2-hydroxypropan-2-yl)phenyl)amino) pyrimidi-ne-5-carboxamide]", "SYK Tm-Shift": 0.9},
      {"smiles": "CN(C)C(=O)c1cccc(Nc2nc(N3CCC[C@H](N)C3)ncc2C(N)=O)c1", "note": "[Example 23, (S)-2-(3-aminopiperidin-1-yl)-4-((3-(dimethylcarbamoyl)phenyl)amino)pyrimidine-5-carboxamide]", "SYK Tm-Shift": 1.6},
      {"smiles": "NC(=O)c1cnc(N2CCC[C@H](N)C2)nc1Nc1cccc(C(=O)N2CCCCC2)c1", "note": "[Example 26, (S)-2-(3-aminopiperidin-1-yl)-4-((3-(piperidine-1-carbonyl)phenyl)amino)pyrimidine-5-carboxamide]", "SYK Tm-Shift": 1.8},
      {"smiles": "CN(C)C(=O)c1cc(Nc2nc(N3CCC[C@H](N)C3)ncc2C(N)=O)cc(C(C)(C)C#N)c1", "note": "[Example 46, (S)-2-(3-aminopiperidin-1-yl)-4-((3-(2-cyanopropan-2-yl)-5-(dimethylcarbamoyl)phenyl)amino)pyrimidine-5-carboxamide]", "SYK Tm-Shift": 0.5},
      {"smiles": "CC(C)(O)c1cc(Nc2nc(N3CCC[C@H](N)C3)ncc2C(N)=O)cc(C(F)(F)F)c1", "note": "[Example 89, (S)-2-(3-aminopiperidin-1-yl)-4-((3-(2-hydroxypropan-2-yl)-5-(trifluoromethyl)phenyl)amino)pyrimidine-5-carboxamide]", "SYK Tm-Shift": 3.4},
      {"smiles": "Cc1cccc(C)c1-c1cc(Nc2nc(N3CCC[C@H](N)C3)ncc2C(N)=O)cc(C(=O)N2CCOCC2)c1", "note": "[Example 20, (S)-2-(3-aminopiperidin-1-yl)-4-((2′,6′-dimethyl-5-(morpholine-4-carbonyl)-[1,1′-biphenyl]-3-yl)amino)pyrimidine-5-carboxamide]", "SYK Tm-Shift": 0.3}
    ]}
  ]
}
